The values that follow come from paper PMC12246421 (NPJ Precision Oncology, 2025).

The target in this experiment is METTL21A (Methyltransferase 21A) (Homo sapiens, UniProt Q8WXB1). The experiment is described as follows: SPR. The format is binding.

SMILES strings stand for the structures.

METTL21A (Methyltransferase 21A), sequence (Q8WXB1 whole entry): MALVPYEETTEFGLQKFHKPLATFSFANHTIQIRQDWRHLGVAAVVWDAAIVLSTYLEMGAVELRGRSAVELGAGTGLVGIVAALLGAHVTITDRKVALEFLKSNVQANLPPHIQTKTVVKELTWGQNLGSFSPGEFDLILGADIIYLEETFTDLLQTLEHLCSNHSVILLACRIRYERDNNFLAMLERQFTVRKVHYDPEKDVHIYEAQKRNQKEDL

`O=c1c(-c2ccc(O[C@@H]3O[C@H](CO)[C@@H](O)[C@H](O)[C@H]3O)cc2)coc2cc(O)cc(O)c12` [Sop, sophoricoside] showed a Kd of 122 µM.
